# Results from patent publication US20150086655A1, “Morinda Citrifolia Juice Formulations Comprising Iridoids” (priority 2013, published 2015).
# Tests used:
# [1] = tested on: E. coli PQ37; experiment: Primary DNA damage test (SOS-chromotest); assay type: cell-based; details: all concentrations tested (7.81-1000 μg mL^−1)
# Method: The SOS-chromotest in E. coli PQ37 was used to determine the potential for DAA and AA to induce primary DNA damage. This test was carried out according to the previously developed method (Fish et al., 1987). […] E. coli PQ37 was incubated in LB medium in a 96-well plate at 37° C. in the presence of DAA or AA for 2 hours. The DAA and AA concentrations tested were 7.81, 15.6, 31.2, 62.5, 125, 250, 500, and 1000 μg mL^−1. Samples were evaluated in triplicate. […] Induction factors less than two indicate an absence of genotoxic activity.
# [2] = tested on: E. coli PQ37; assay type: cell-based; details: 250 ug mL^−1 iridoid plus 1.25 ug mL^−1 4NQO
# Method: The SOS-chromotest in E. coli PQ37 was used to determine the potential for iridoids in noni fruit from French Polynesia to prevent primary DNA damage. E. coli PQ37 was incubated at 37° C. in the presence of deacetylasperulosidic acid and asperulosidic acid at a concentration of 250 ug mL^−1 in a 96-well plate. Replicate samples were evaluated.
# [3] = Thermal stability of DAA under pasteurization conditions (HPLC); assay type: physicochemical; details: 90° C. at pH 3.3 for one minute
# Method: Tahitian noni fruit puree as used in this example is the mashed whole fruit, excluding seeds and pericarp. The fruits were originally collected from the Tahitian Islands. One gram of the puree was diluted with 5 mL of H2O-MeOH (1:1) and mixed thoroughly. The solution was then filtered through a nylon microfilter (0.45-μm pore size); the solution was collected into a 5 mL volumetric flask for HPLC analysis. Four batches of noni puree were analyzed in the experiments. Voucher specimens of the noni fruit puree are deposited in our lab. To test iridoid stability, a DAA solution of 0.5 mg/mL was prepared with MeOH. This solution was heated in a water-bath at 90° C. for 1 min, cooled to room temperature, and analyzed by HPLC.
# Noni fruit juice is usually subjected to heat pasteurization during commercial processing. Pasteurization is usually employed in noni industry, i.e., heating up to 87.7° C. for several seconds. In this study, the stability of DAA was conducted. DAA was exposed to 90° C. at pH 3.3 for one minute to determine its thermal stability at acidic conditions.
SMILES,induction of SOS repair versus blank [1],induction factors (mean±standard deviation) [2],DAA content before and after heating (thermal stability) [3]
"CC(=O)OCC1=C[C@H](O)[C@@H]2C(C(=O)O)=CO[C@@H](O[C@@H]3O[C@H](CO)[C@@H](O)[C@H](O)[C@H]3O)[C@H]12 [AA, asperulosidic acid]",did not induce any SOS repair,–,–
"O=C(O)C1=CO[C@@H](O[C@@H]2O[C@H](CO)[C@@H](O)[C@H](O)[C@H]2O)[C@@H]2C(CO)=C[C@H](O)[C@H]12 [DAA, deacetylasperulosidic acid]",did not induce any SOS repair,0.98±0.02,no difference in the DAA contents before and after heating
